According to patent US20220242846A1, “ISOINDOLINONE COMPOUNDS” (Monte Rosa Therapeutics AG, priority 2019, published 2022):

Target: GSPT1 (Homo sapiens, UniProt P15170+Q96SW2)
Experiment: Immunofluorescence assay for GSPT1 degradation in CAL-51 cells
Format: cell-based
Set-up: CAL-51 cells were purchased from DSMZ (cat. Number ACC302); endogenous in cells; host or cells: CAL-51 (DSMZ ACC302)
Details: GSPT1 degradation, compound treatment 6 hours, read-out: DC50
Outline: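 CAL-51 cells on fibronectin-coated plates treated 6 h with compound (30 μM to 0.1 nM); fixed, stained with anti-GSPT1/Alexa-488, phalloidin and DAPI, imaged by high-content microscopy. Mean GSPT1 intensity per cell normalized to controls; DC50 by non-linear regression.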

Sequence of GSPT1 (P15170 whole entry): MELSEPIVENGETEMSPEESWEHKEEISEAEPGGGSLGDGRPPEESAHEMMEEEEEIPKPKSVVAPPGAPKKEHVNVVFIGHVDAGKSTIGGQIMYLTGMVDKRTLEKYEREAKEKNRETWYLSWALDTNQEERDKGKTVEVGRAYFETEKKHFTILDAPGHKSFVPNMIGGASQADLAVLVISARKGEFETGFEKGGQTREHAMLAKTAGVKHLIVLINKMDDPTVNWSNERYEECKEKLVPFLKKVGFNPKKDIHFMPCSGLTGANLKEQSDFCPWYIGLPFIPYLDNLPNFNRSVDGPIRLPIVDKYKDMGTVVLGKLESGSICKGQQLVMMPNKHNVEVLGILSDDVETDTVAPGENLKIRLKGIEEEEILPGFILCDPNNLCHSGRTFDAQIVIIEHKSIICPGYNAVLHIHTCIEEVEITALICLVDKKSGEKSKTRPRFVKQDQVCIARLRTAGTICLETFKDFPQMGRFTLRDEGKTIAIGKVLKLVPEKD
Sequence of GSPT1 (Q96SW2 whole entry): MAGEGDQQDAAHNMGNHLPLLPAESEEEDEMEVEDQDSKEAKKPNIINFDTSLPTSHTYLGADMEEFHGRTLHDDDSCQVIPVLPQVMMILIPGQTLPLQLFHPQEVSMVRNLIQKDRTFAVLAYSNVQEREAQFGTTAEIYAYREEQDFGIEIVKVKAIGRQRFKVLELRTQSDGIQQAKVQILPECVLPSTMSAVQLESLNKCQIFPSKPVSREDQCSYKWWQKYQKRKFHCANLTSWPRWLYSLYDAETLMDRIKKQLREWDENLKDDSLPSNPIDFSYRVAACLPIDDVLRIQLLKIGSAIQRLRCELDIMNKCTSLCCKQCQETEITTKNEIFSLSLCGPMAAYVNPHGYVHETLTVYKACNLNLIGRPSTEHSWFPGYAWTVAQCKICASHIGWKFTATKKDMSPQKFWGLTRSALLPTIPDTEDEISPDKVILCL
Sequence of GSPT1 (Q16531 2-1140 partner limits assumed): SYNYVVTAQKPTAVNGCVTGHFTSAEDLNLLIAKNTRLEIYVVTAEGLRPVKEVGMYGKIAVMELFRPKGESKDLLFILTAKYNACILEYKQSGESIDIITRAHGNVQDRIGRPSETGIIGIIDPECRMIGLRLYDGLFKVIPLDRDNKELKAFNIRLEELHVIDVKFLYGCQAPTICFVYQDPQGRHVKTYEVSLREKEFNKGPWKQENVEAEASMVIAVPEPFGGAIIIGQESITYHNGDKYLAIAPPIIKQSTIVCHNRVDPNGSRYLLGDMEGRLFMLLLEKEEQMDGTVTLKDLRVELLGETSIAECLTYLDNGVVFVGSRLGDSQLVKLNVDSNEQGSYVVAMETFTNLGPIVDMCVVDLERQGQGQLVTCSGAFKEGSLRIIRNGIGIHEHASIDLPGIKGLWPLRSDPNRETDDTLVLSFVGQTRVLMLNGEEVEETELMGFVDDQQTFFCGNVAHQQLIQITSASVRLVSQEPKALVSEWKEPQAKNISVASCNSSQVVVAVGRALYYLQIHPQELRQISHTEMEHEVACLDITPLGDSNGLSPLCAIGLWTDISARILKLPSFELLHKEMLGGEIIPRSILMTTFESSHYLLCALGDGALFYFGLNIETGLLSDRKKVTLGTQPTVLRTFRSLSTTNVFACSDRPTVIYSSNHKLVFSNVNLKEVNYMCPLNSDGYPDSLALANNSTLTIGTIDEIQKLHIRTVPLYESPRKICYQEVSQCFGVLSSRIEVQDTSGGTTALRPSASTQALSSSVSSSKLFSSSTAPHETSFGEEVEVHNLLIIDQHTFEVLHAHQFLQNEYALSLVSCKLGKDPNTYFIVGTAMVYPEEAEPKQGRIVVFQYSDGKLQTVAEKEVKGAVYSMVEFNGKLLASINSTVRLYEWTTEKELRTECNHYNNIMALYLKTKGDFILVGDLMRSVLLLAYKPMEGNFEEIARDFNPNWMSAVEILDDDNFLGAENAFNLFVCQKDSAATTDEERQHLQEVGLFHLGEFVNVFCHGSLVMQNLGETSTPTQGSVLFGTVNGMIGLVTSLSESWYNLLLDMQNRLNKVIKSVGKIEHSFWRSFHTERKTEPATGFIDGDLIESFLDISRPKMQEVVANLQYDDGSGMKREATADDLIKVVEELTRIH

Row | DC50 [µM] | Compound
1 | 0.274 | Cc1cc(C)c(NC(=O)NCc2ccc3c(c2)C(=O)N(C2CCC(=O)NC2=O)C3)cc1Cl (stereo not shown) [Compound 85]

Same assay, conditions: compound treatment 6 hours, read-out: Code: activity for GSPT1 degradation (DC50)

Row | DC50 [µM] | Compound
2 | > 0.3 | O=C1CCC(N2Cc3ccc(CNC(=O)Nc4cccc(CN5CCOCC5)c4)cc3C2=O)C(=O)N1 (stereo not shown) [Compound 105]
3 | 0.1 to 0.3 | Cc1cc(C)c(NC(=O)NCc2ccc3c(c2)C(=O)N(C2CCC(=O)NC2=O)C3)cc1Cl (stereo not shown) [Compound 85]
4 | 0.1 to 0.3 | Cc1c(Cl)cc(NC(=O)NCc2ccc3c(c2)C(=O)N(C2CCC(=O)NC2=O)C3)cc1CN(C)C (stereo not shown) [Compound 75]
5 | > 0.3 | Cc1ccc(NC(=O)NCc2ccc3c(c2)C(=O)N(C2CCC(=O)NC2=O)C3)c(Cl)c1Cl (stereo not shown) [Compound 87]
6 | ≤ 0.1 | Cc1c(Cl)cc(NC(=O)NCc2ccc3c(c2)C(=O)N(C2CCC(=O)NC2=O)C3)cc1CN1CCOCC1 (stereo not shown) [Compound 82]
7 | ≤ 0.1 | Cc1c(Cl)cc(NC(=O)NCc2ccc3c(c2)C(=O)N(C2CCC(=O)NC2=O)C3)cc1CC1COCOC1 (stereo not shown) [Compound 132]
